Experiments:
[1] = in vivo; conditions: rat, po, 3 mg/kg
Method: Pharmacokinetic parameters were calculated by statistical moment method using WinNonLin 8.0 software, mainly including Tmax, T1/2, Cmax and AUC0-24h.
Animals: Three male SD rats weighing 200-220 g were used. After purchase, they were housed in the laboratory animal center for 2 days before experiment. […] Blood samples were collected at scheduled time points after oral gavage.
Vehicle: 0.4% ethanol + 0.4% Tween 80 + 99.2% (0.5% methylcellulose M450). Preparation of oral gavage solution: The compound was accurately weighed and dissolved in vehicle by ultrasonication for 5 min at room temperature to prepare 0.3 mg/mL drug solution.
Single compound administration was also used to study pharmacokinetics in rats.
Blood sample collection: After oral gavage, blood samples were collected from orbital sinus at 0.25, 0.5, 1, 2, 4, 8, 10 and 24 h. 50 µL plasma was mixed with 200 µL acetonitrile (containing 2 ng/mL verapamil as internal standard). The mixture was vortexed for 3 min, then centrifuged at 20000 rcf for 10 min at 4 °C. The supernatant was analyzed by LC-MS/MS.
Standard curves were established by accurately weighing and preparing compounds at different concentrations for mass spectrometric quantification. Compound concentrations in plasma samples were determined based on standard curves to obtain concentration-time profiles. All measurement data were collected and processed by relevant software. Pharmacokinetic parameters (including Tmax, T1/2, Cmax and AUC0-24h) were calculated by statistical moment method.

[2] = target: FAK kinase (Homo sapiens, UniProt Q05397); test: FAK kinase activity inhibition assay, method A (HTRF) and method B (Lantha screen); assay type: biochemical
Method: The HTRF method was used to evaluate the inhibitory activity of the compounds against FAK kinase. […]. The reaction conditions were: FAK kinase at 0.1 ng/µL; ATP 10 µM; substrate concentration 1 µM. Compounds were serially diluted in DMSO and shaken on a shaker for 20 minutes. Prepare 2× kinase using 1× reaction buffer. Transfer 25 nL compound to a 384-well plate using Echo 655. Add 2.5 µL kinase per well. Seal the plate with sealing film, centrifuge at 1000 rpm for 60 seconds, and incubate at 25°C for 12 hours. Prepare 2× ATP/substrate mix using 1× enzyme reaction buffer and add 2.5 µL 2× ATP/substrate mix per well. Seal the plate with sealing film, centrifuge at 1000 rpm for 60 seconds, and incubate at 25°C for 50 minutes. Prepare 2×XL665 & antibody solution using HTRF detection buffer, and add 5 µL per well. Incubate at 25°C for 60 minutes. Read fluorescence at 620 nm (Cryptate) and 665 nm (XL665). Calculate the ratio per well (Ratio_665/620 nm). % Inhibition = 100% - [(Compound Ratio - Positive Control Ratio)/ (Negative Control Ratio - Positive Control Ratio)] × 100%. IC50 values (half-maximal inhibitory concentration) were calculated by nonlinear regression using GraphPad Prism 7.0. Y = Bottom + (Top - Bottom)/ (1 + 10^ ((LogIC50 - X) × Hill Slope)), where X is the log of compound concentration and Y is the % inhibition.
The Lantha screen assay was used to evaluate the FAK kinase inhibitory activity. Compounds were dissolved in 100% DMSO at 10 mM stock concentration. Prepare 1× kinase buffer (25 mM HEPES, pH 7.5, 0.01 mM Triton, 0.5 mM EGTA, 0.01% Brij-35). Dilute compounds in a gradient, and transfer 5 µL compound into the reaction plate. Prepare 2× kinase solution with 1× Kinase buffer. Add 5 µL kinase solution to compound and positive control wells, and 5 µL 1× Kinase buffer to negative control wells. Mix reaction plate by shaking. Prepare 4× ATP/Fluorescein-polyGT substrate mix with 1× Kinase buffer. Add 2.5 µL substrate solution to initiate the reaction. Shake and incubate at room temperature for 30 minutes. Prepare 2× detection reagent (2 nM antibody, 10 mM EDTA) and add 10 µL per well to stop the reaction. Briefly centrifuge, mix, and incubate for 60 minutes. Read fluorescence at 340 nm excitation and 520 nm/495 nm emission using EnVision. Collect data and calculate 520 nm/495 nm ratio. Calculate the inhibition percentage using the formula: % Inhibition = (Max - Sample Ratio)/(Max - Min) × 100, where min is the mean of negative control wells (no enzyme activity), and max is the mean of positive control wells (DMSO-inhibited conversion rate).Use XLFit Excel add-in version 5.4.0.8 to determine the IC50 values of each compound against the enzyme activity: Y = Bottom + (Top - Bottom)/(1 + (IC50/X)^HillSlope).

[3] = target: HPK1 kinase (Homo sapiens, UniProt Q92918); test: HPK1 kinase activity inhibition assay (Mobility shift assay); assay type: biochemical
Method: Measure compound inhibitory activity against HPK1 kinase using Mobility shift assay. Compounds were dissolved in 100% DMSO to prepare 10 mM stock solutions. 1× Kinase buffer was prepared. Test compounds were serially diluted in 5-fold gradients, and 250 nL of 100× final concentration compounds were transferred to destination plate 3573 using an Echo 550 liquid handler. A 2.5× final concentration kinase solution was prepared in 1× Kinase Buffer. 10 µL of the 2.5× kinase solution was added to both compound wells and positive control wells, while 10 µL of 1× Kinase buffer was added to negative control wells. The plate was centrifuged at 1000 rpm for 30 seconds, mixed by orbital shaking, and incubated at room temperature for 10 minutes. A 5/3× final concentration mixture of ATP and Kinase substrate 25 was prepared in 1× Kinase buffer. 15 µL of the 5/3× ATP/substrate mixture was added to initiate the reaction. The 384-well plate was centrifuged at 1000 rpm for 30 seconds, mixed by shaking, and incubated at room temperature for 120 minutes. The kinase reaction was terminated by adding 30 µL stop solution, followed by centrifugation at 1000 rpm for 30 seconds and mixing. Conversion rates were measured using a Caliper EZ Reader. The inhibition percentage was calculated as: %Inhibition = (Conversion%_max - Conversion%_sample)/(Conversion%_max - Conversion%_min) × 100. Where Conversion%_sample: Conversion rate reading of test samples; Conversion%_min: Mean value of negative control wells (representing conversion rate without enzyme activity); Conversion%_max: Mean value of positive control wells (representing conversion rate without compound inhibition). Dose-response curves were plotted with log(concentration) as the X-axis and percentage inhibition as the Y-axis. Curve fitting was performed using GraphPad Prism 5 software with the "log(inhibitor) vs. response - Variable slope" model to derive IC50 values for each compound's enzyme inhibitory activity. The fitting formula was: Y = Bottom + (Top - Bottom)/(1 + 10^((LogIC50 - X) × HillSlope)).

[4] = target: T1, FLT3 (Homo sapiens, UniProt P36888); test: FLT3 kinase activity inhibition assay (Mobility shift assay); assay type: biochemical
T1 sequence (P36888 27-993): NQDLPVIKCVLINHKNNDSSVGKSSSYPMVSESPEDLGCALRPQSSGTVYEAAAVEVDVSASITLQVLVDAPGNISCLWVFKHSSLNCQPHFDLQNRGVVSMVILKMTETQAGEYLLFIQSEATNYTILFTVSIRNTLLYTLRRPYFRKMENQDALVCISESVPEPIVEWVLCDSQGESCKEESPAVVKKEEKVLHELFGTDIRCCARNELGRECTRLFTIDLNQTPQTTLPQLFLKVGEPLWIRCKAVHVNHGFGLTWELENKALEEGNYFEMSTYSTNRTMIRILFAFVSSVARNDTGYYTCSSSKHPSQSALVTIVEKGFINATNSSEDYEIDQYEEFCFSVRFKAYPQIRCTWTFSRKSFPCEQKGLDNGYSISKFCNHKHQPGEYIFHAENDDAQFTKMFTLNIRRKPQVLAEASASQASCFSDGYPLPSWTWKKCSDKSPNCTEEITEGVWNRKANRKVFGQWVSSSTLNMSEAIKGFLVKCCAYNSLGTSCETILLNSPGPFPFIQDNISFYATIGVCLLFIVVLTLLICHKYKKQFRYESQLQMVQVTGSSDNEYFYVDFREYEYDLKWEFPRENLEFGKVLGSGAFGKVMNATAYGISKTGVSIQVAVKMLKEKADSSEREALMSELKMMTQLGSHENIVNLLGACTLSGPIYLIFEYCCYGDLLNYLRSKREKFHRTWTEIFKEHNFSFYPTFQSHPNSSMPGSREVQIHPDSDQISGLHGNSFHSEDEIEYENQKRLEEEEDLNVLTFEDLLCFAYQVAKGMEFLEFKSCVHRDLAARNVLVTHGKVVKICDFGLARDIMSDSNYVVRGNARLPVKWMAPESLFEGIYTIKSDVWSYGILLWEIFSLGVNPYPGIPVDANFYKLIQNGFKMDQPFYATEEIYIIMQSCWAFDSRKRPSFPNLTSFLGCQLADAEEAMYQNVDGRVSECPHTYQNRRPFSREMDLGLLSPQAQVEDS
Method: Testing compound inhibitory activity against FLT3 and AXL kinases using Mobility shift assay. Compounds were dissolved in 100% DMSO to prepare 10 mM stock solutions. Prepare 1× Kinase Buffer. Test compounds were serially diluted in 5-fold gradients, and 250 nL of 100× final concentration compounds were transferred to destination plate 3573 using an Echo 550 liquid handler. A 2.5× final concentration kinase solution was prepared in 1× Kinase Buffer. Then, 10 µL of the 2.5× kinase solution was added to both compound wells and positive control wells, while 10 µL of 1× Kinase Buffer was added to negative control wells. The plate was centrifuged at 1000 rpm for 30 seconds, mixed by orbital shaking, and incubated at room temperature for 10 minutes. A 5/3× final concentration mixture of ATP and Kinase Substrate 25 was prepared in 1× Kinase Buffer. The reaction was initiated by adding 15 µL of the 5/3× ATP/substrate mixture. The 384-well plate was centrifuged at 1000 rpm for 30 seconds, mixed by shaking, and incubated at room temperature for 120 minutes. The kinase reaction was terminated by adding 30 µL stop solution, followed by centrifugation at 1000 rpm for 30 seconds and mixing. Conversion rates were measured using a Caliper EZ Reader. %Inhibition = (Conversion%_max - Conversion%_sample)/(Conversion%_max - Conversion%_min) × 100. Where: Conversion%_sample: Conversion rate reading of test samples; Conversion%_min: Mean value of negative control wells (representing conversion rate without enzyme activity); Conversion%_max: Mean value of positive control wells (representing conversion rate without compound inhibition). Dose-response curves were plotted with log(concentration) as the X-axis and percentage inhibition as the Y-axis. Curve fitting was performed using GraphPad Prism 5 software with the "log(inhibitor) vs. response - Variable slope" model to derive IC50 values for each compound's enzyme inhibitory activity. The fitting formula was: Y = Bottom + (Top - Bottom)/(1 + 10^((LogIC50 - X) × HillSlope)).

HPK1 kinase, sequence (Q92918 whole entry): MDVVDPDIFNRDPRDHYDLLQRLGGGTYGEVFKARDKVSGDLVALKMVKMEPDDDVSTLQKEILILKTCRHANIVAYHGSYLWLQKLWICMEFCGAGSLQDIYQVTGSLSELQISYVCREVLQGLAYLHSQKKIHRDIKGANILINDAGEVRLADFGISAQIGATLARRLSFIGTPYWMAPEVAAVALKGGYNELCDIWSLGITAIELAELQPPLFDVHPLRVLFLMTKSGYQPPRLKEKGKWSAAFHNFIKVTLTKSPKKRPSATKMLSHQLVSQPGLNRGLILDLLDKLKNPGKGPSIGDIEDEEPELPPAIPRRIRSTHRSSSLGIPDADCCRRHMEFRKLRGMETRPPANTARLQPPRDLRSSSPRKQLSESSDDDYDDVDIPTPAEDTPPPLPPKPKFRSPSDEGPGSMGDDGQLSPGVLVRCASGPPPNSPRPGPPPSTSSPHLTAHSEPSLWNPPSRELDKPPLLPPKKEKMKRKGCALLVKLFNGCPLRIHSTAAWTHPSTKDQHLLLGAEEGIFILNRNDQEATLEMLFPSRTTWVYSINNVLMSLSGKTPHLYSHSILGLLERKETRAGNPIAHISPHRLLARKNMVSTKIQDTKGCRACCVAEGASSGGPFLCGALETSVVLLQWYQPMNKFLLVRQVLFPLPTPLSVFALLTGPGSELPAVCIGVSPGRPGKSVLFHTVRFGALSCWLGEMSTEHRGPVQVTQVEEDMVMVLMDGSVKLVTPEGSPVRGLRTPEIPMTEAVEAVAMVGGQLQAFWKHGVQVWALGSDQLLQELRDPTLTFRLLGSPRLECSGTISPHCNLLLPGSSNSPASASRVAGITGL
FAK kinase, sequence (Q05397 whole entry): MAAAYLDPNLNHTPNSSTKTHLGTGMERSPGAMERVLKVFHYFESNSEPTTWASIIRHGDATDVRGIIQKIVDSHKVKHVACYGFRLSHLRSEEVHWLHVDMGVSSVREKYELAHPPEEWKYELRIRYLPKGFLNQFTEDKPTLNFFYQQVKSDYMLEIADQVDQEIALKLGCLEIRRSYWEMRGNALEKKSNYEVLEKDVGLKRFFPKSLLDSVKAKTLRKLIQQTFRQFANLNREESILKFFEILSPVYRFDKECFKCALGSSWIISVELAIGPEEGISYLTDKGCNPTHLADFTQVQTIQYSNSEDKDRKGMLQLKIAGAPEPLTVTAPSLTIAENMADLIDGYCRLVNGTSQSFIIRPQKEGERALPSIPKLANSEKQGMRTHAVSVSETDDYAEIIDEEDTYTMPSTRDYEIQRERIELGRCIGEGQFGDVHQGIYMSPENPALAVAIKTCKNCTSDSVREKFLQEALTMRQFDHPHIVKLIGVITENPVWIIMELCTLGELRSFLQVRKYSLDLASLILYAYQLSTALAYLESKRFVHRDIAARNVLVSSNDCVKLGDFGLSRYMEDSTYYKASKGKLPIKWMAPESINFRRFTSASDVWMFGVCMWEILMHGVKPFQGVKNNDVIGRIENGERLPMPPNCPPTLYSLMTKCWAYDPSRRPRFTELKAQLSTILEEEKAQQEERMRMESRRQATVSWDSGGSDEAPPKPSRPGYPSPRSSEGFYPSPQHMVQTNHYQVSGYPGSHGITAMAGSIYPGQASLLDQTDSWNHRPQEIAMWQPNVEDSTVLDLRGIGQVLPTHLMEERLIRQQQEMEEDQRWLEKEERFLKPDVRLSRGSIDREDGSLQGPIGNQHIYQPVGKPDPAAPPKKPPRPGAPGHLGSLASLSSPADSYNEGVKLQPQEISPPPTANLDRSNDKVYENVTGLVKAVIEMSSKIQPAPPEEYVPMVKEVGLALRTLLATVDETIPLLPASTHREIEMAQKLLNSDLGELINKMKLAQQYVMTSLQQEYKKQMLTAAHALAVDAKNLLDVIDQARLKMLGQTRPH

SMILES: CCc1cc2c(cc1Nc1ncc(C(F)(F)F)c(NCCCN3CCOCCC3=O)n1)OC[C@H]1CN(C3COC3)CCN21 [Compound A12R]
- AUC(0-t) at 24 h [1]: 1460 ng·h/mL
- Cmax [1]: 487 ng/mL
- Tmax [1]: 0.5 h
- half-life [1]: 1.76 h

SMILES: CNC(=O)c1ccccc1Nc1cc(Nc2cc3c(cc2OC)N2CCN(C4CCOCC4)C[C@@H]2CO3)ncc1C(F)(F)F [Compound D1R]
- IC50 [2]: < 3 nM
- IC50 [3]: < 30 nM
- IC50 [4]: < 30 nM

Source: patent publication EP4653444A1, “FUSED TRICYCLIC COMPOUND AS KINASE INHIBITOR” (Hangzhou Innogate Pharma Co., Ltd., priority 2023, dated 2024)
